# Reference: ChEMBL document CHEMBL1201862, “PubChem BioAssay data set” (2004)
# Calls of active or inactive are those of the source.
# Tests used:
# [1] = molecular target: Luciferin 4-monooxygenase (Photinus pyralis, UniProt P08659); assay: Counter Screen for Luciferase-based Assay Positives. [Related pubchem assays: 620, 618, 411 ]
# HT-1080 = assay: cytotoxicity in HT1080 fibrosarcoma cells, cell-based, fluorescence readout (AID 620); type: functional; details: Homo sapiens
# [2] = molecular target: Dual specificity tyrosine-phosphorylation-regulated kinase 1A (Rattus norvegicus, UniProt Q63470); type: biochemical, Homo sapiens
# [3] = HepG2 cell cytotoxicity, dose response, cytotoxicity control, ATP luminescence, cherry-pick, activator set 2 (AID 1053143); type: functional, cell-based
# Escherichia coli = assay: microbe, parasite or virus in culture
# [4] = tested on: Streptococcus sp. 'group A'; assay: growth inhibition of control SK(-) GAS strain, dose response, counter-screen for streptokinase expression inhibitor project, luminescence, kanamycin, BacTiterGlo, confirmation (AID 1900); type: functional, organism-based
# Streptococcus = assay: Group A Streptococcus viability loss, dose response, counter-screen for streptokinase expression inhibitor project, luminescence, BacTiterGlo (AID 1915); type: functional, organism-based;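 note: potency for reduction of bacterial viability or growth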
# [5] = molecular target: T1, Short transient receptor potential channel 4 (Mus musculus, UniProt Q9QUQ5); assay: mouse TRPC4 channel activators, dose response, cell-based, HEK293 TRPC4/mu-opioid, Fluo-4 calcium (AID 434937); type: functional
# T1 sequence (Q9QUQ5 whole entry): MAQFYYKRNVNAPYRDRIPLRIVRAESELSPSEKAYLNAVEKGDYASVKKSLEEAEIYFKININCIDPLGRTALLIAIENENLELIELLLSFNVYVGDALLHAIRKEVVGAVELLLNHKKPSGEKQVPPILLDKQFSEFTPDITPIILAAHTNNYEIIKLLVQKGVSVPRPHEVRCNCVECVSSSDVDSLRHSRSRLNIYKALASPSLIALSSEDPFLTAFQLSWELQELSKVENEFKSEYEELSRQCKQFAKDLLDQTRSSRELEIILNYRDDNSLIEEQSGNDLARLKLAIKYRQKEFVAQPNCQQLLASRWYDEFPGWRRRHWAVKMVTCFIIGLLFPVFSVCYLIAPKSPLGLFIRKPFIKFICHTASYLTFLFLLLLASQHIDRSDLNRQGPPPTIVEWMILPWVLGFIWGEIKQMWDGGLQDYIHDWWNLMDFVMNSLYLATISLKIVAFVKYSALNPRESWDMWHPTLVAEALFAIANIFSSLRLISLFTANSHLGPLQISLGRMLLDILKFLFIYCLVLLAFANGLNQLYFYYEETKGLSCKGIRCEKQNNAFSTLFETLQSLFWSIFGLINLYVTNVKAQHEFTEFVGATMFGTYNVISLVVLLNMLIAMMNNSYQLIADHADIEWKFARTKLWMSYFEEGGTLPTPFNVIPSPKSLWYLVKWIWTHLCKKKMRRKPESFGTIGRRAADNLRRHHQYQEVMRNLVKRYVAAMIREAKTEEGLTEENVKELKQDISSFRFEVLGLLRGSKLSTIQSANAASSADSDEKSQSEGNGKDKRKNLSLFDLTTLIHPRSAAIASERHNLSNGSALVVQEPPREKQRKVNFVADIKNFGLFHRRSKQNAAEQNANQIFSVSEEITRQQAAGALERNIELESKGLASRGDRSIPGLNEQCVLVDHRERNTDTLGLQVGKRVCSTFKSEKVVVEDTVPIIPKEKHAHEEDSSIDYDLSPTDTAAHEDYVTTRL
# [6] = human group III sPLA2 inhibitors, dose response, biochemical, QFRET, IC50 (AID 743457);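 note: green fluorescence rise as the enzyme cleaves BODIPY PC-A2 in liposomes; potency for inhibition of the enzyme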
# [7] = HIF luciferase reporter inhibitors, dose response, ARNT-TACC3 inhibitor project, cell-based, dry powder samples, luminescence, 2158-07 (AID 720561); type: functional
# [8] = molecular target: Oxysterols receptor LXR-beta (Homo sapiens, UniProt P55055); type: functional, cell-based;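 note: Cell-based luminescence dose-response assay of agonist activity at LXR, run as a confirmatory counterscreen to a daf-12 agonist screen; HEK293 cells with Gal4-LXR fusion and GAL4-driven luciferase reporter; agonist potency from rising luciferase signal of a Gal4-LXR reporter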
# CHO = assay: cytotoxicity in TLR9-MyD88 CHO cells, dose response, cytotoxicity control for TLR9-MyD88 binding inhibitor project, cell-based, luminescence (AID 588339); type: functional, hamster; details: Cricetulus griseus;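 note: CHO cells stably coexpressing TLR9 and MyD88 fusions from primary screen; compound exposure lasted 48 hours before viability readout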
# Beta Lactamase = Beta Lactamase (Pseudomonas aeruginosa, UniProt Q932Y6); assay: beta-lactamase reporter inhibitor potency, dose response, artefact control for TLR9-MyD88 binding inhibitor project, BLA reporter cells, FRET fluorescence (AID 588341); type: cell-based;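 note: cell based assay in CHO-K1 cells stably expressing beta-lactamase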
# Sequence of Beta Lactamase (Q932Y6 whole entry): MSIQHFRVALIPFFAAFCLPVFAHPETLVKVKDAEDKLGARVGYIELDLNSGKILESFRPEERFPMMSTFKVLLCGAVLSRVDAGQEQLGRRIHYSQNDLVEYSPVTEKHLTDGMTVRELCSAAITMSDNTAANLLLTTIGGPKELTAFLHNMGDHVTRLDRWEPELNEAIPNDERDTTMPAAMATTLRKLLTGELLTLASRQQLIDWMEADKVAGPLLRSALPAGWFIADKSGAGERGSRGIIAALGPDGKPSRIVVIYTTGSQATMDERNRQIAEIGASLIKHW
# [9] = molecular target: T2, Rac GTPase-activating protein 1 (Homo sapiens, UniProt Q9H0H5); assay: MgcRacGAP GTPase-activating activity inhibitors, confirmation, biochemical, ADP Hunter fluorescence, primary and confirmatory (AID 624330); type: functional
# T2 sequence (Q9H0H5 whole entry): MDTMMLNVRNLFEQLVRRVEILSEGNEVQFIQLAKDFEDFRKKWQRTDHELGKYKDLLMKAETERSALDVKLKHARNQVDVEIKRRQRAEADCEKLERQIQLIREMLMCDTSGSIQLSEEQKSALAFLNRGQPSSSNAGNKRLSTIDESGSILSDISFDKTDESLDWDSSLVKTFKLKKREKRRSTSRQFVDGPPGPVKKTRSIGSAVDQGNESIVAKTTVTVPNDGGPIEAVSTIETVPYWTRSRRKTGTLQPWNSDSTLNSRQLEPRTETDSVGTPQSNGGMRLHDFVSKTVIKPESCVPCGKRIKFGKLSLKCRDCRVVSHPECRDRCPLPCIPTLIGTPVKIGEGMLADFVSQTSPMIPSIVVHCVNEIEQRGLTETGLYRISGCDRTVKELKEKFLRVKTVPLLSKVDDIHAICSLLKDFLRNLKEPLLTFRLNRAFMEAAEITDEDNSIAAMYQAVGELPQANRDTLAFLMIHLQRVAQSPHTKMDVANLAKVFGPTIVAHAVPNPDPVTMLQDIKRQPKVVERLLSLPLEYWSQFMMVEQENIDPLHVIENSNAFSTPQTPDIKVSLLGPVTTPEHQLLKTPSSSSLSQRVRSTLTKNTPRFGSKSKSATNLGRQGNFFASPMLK
# NS3 = NS3 (Hepatitis C virus, UniProt A3EZJ3); assay: HCV NS3 helicase inhibitor potency, dose response, biochemical, fluorescence polarization, ChemBridge library (AID 743264)
# Sequence of NS3 (A3EZJ3 whole entry): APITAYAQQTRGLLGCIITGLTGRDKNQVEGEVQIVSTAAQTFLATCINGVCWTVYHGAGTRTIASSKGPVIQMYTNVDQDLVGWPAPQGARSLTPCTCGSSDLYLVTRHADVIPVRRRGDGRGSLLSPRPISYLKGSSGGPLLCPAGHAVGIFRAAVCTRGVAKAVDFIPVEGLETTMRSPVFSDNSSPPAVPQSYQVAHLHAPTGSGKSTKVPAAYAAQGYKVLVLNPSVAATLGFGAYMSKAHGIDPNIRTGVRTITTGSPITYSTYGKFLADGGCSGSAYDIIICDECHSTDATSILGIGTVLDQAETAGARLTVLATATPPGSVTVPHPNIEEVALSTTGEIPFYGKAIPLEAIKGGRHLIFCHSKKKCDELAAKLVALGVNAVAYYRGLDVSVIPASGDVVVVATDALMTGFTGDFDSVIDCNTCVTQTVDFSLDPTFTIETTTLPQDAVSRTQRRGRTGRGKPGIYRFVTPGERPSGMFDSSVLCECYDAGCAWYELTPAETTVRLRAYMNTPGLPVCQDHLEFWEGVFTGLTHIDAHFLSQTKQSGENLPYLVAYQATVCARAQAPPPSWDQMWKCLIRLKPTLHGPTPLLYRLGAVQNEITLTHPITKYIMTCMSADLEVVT
# Coagulation factor XII = molecular target: T3, Coagulation factor XII (Homo sapiens, UniProt P00748); type: functional;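 note: activated factor XIIa alpha cleaving a fluorogenic AMC peptide substrate; inhibitor potency from loss of enzyme activity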
# T3 sequence (P00748 whole entry): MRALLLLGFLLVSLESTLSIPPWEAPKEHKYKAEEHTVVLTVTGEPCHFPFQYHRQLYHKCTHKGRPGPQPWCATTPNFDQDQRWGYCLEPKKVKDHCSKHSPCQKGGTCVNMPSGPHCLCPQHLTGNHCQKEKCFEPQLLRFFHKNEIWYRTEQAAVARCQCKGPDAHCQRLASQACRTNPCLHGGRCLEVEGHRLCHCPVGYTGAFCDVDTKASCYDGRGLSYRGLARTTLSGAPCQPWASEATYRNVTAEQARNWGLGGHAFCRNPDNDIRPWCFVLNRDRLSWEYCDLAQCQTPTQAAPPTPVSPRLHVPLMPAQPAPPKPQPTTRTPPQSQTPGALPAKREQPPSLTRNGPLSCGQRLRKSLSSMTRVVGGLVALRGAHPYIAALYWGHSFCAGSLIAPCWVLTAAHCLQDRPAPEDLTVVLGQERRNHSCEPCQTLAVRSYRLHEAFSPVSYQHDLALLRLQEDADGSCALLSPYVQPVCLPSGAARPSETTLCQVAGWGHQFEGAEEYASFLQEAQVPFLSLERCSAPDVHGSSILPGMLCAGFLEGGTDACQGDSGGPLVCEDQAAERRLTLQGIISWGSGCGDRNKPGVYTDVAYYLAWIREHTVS
# [10] = molecular target: 1-phosphatidylinositol 4,5-bisphosphate phosphodiesterase gamma-1 (Homo sapiens, UniProt P19174); assay: Counterscreen for inhibitors of phospholipase C isozymes (PLC-B3): Fluorescence-based biochemical high throughput dose response assay to identify inhibitors of phospholipase C isozymes (PLC-gamma1).
# Sequence of 1-phosphatidylinositol 4,5-bisphosphate phosphodiesterase gamma-1 (P19174 whole entry): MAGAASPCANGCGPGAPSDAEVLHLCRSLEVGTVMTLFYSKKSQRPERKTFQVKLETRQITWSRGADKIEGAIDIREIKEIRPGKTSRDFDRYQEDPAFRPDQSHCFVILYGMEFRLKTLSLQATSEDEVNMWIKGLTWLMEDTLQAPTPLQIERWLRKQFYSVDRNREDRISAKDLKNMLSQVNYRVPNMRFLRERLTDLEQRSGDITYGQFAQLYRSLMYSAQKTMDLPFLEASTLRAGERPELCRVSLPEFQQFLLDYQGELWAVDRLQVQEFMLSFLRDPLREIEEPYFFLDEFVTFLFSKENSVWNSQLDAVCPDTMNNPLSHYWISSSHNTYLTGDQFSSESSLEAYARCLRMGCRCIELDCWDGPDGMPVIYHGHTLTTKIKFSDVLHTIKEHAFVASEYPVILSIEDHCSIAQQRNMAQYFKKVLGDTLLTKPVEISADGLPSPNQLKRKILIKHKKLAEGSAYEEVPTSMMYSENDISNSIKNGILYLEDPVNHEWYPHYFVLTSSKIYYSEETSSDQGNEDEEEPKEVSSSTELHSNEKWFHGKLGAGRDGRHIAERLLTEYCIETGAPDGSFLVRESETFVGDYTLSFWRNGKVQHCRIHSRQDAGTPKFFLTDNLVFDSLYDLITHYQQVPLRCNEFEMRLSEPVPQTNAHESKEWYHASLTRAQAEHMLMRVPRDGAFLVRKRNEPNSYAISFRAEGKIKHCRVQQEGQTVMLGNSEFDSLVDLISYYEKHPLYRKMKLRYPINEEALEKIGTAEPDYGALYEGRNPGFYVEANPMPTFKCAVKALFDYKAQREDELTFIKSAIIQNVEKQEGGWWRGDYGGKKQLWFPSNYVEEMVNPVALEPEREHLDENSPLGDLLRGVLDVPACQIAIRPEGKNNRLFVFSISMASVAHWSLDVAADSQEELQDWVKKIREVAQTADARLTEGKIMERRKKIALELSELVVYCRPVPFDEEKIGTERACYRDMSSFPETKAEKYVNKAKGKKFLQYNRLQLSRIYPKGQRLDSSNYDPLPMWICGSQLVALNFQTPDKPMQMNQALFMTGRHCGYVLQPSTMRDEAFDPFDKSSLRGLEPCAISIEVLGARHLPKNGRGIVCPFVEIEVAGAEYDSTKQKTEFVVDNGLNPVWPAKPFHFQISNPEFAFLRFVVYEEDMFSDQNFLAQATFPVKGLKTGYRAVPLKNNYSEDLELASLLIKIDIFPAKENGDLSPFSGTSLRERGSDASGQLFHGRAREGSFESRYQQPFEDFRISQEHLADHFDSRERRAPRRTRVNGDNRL
# [11] = molecular target: 1-phosphatidylinositol 4,5-bisphosphate phosphodiesterase beta-3 (Homo sapiens, UniProt Q01970); assay: Fluorescence-based biochemical high throughput dose response assay to identify inhibitors of phospholipase C isozymes (PLC-B3).
# Sequence of 1-phosphatidylinositol 4,5-bisphosphate phosphodiesterase beta-3 (Q01970 whole entry): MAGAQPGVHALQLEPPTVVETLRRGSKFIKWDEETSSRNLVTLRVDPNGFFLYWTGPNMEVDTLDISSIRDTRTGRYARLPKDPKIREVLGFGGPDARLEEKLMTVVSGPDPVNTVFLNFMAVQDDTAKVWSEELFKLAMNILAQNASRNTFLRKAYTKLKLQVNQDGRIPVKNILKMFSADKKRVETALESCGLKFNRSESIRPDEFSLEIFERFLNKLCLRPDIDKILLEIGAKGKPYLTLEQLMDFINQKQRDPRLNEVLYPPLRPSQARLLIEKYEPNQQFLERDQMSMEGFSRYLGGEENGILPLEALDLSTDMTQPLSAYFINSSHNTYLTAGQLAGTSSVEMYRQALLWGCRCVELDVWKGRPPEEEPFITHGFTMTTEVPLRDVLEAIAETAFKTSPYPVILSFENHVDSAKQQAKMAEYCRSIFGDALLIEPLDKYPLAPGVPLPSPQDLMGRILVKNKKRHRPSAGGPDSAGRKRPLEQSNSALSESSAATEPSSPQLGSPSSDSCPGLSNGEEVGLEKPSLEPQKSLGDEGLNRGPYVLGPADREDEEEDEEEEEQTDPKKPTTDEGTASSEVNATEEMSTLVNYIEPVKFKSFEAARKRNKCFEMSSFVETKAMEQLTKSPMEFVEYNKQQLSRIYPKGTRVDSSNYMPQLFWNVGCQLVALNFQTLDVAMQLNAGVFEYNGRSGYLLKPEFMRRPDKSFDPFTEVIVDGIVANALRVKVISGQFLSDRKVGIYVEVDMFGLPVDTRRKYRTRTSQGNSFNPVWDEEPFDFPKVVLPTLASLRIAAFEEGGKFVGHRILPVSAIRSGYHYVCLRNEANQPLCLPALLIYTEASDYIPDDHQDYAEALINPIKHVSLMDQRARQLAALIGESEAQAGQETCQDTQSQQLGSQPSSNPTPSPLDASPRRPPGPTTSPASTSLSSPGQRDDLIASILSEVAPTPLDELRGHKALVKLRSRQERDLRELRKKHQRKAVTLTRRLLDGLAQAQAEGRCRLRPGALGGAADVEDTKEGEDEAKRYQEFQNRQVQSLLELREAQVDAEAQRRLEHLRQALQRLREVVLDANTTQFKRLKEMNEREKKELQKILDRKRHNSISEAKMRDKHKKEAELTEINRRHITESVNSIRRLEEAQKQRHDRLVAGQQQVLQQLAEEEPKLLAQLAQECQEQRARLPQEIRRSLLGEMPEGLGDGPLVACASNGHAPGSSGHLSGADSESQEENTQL
# HEK293 = assay: HEK293T cell cytotoxicity, dose response, cytotoxicity control, ATP luminescence, cherry-pick samples (AID 687005); type: functional, cell-based; details: Homo sapiens;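 note: cells exposed to compound for 48 hours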
# [12] = HEK293 Cytotoxicity Assay Measured in Cell-Based System Using Plate Reader - 7071-01_Inhibitor_Dose_CherryPick_Activity_Set2.; type: functional
# [13] = P. falciparum 3D7-ScDHODH growth inhibitors, dose response, SYBR Green, dry powder samples (AID 1159570); type: functional, cell-based;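 note: parasite growth measured after 72 hours of compound exposure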
# [14] = P. falciparum Dd2 growth inhibitors, dose response, SYBR Green, cherry-picked samples (AID 1159567); type: functional, cell-based
# [15] = P. falciparum Dd2 growth inhibitors, dose response, SYBR Green, dry powder samples (AID 1159566); type: functional, cell-based;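 note: potency for growth inhibition with lower SYBR green DNA signal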
# [16] = P. falciparum ATP4 D1247Y mutant growth inhibitors, dose response, NITD609-resistant line, SYBR Green, dry powder (AID 1159571); type: functional, cell-based;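 note: parasites synchronized at ring stage by sorbitol before testing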
# [17] = Late stage assay provider results from the probe development effort to identify inhibitors of the Plasmodium falciparum M18 Aspartyl Aminopeptidase (M18AAP): radiolabel-based cell-based dose response assay to identify compounds that inhibit P. falciparum growth in RBCs, Set 2..; type: functional
# [18] = inhibitors of non-replicating M. tuberculosis, dose response, luciferase, dry powder (AID 651619); type: functional; details: Mycobacterium tuberculosis
# [19] = cytotoxicity in HepG2 cells, dose response, cytotoxicity control, cell-based, plate reader, dry powder (AID 651947); type: functional
# [20] = cytotoxicity in HeLa cells, dose response, cytotoxicity control, cell-based, plate reader, dry powder (AID 651946); type: functional
# [21] = inhibitors of non-replicating M. tuberculosis, dose response, luciferase, dry powder (AID 651620); type: functional; details: Mycobacterium tuberculosis
# [22] = growth inhibition of replicating M. tuberculosis, dose response, counter-screen, dry powder, IC90 (AID 651617); type: functional; details: Mycobacterium tuberculosis
# [23] = HEK293T cell cytotoxicity, dose response, cytotoxicity control, CellTiter-Glo luminescence, dry powder, set 6 (AID 651949); type: functional, cell-based; details: HEK293
# [24] = molecular target: C-X-C chemokine receptor type 4 (Homo sapiens, UniProt P61073); assay: SAR analysis of small molecule antagonists of the CXCR6 receptor using a CXCR4 receptor luminescent beta-arrestin counterscreen.; type: functional
# Sequence of C-X-C chemokine receptor type 4 (P61073 whole entry): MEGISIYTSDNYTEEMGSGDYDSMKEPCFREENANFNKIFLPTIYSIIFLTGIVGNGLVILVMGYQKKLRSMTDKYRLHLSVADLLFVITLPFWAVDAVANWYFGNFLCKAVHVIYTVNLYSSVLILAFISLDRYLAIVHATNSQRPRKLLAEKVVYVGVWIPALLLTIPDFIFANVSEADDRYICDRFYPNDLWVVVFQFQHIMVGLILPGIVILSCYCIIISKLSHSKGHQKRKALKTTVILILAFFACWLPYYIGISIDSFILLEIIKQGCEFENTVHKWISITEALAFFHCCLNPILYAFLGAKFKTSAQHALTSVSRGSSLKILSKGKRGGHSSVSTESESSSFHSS
# [25] = molecular target: C-C chemokine receptor type 6 (Homo sapiens, UniProt P51684); assay: SAR analysis of small molecule antagonists of the CXCR6 receptor using a CCR6 receptor luminescent beta-arrestin counterscreen.; type: functional
# Sequence of C-C chemokine receptor type 6 (P51684 whole entry): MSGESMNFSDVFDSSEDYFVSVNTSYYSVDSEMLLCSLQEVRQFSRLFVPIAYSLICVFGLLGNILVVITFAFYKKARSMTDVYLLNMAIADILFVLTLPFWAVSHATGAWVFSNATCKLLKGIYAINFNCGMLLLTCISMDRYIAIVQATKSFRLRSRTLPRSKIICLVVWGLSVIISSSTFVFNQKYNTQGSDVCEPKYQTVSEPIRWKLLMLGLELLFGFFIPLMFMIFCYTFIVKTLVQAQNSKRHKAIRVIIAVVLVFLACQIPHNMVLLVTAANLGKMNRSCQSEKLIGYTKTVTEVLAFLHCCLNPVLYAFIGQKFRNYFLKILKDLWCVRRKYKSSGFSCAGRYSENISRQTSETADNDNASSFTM
# [26] = molecular target: Protein disulfide-isomerase (Homo sapiens, UniProt P07237); assay: PDI inhibitors, insulin turbidity readout, confirmation, biochemical, dry powder samples, set 2 (AID 652146)
# [27] = CTGF mRNA reduction under YAP1 overexpression, dose response, mechanism study for YAP1 pathway inhibitor project, DLD1 cells, RT-qPCR, cherry-pick (AID 1053127); type: functional, cell-based; details: DLD-1
# [28] = YAP1 pathway inhibition via CTGF transcript levels, dose response, cell-based, DLD1 colon cancer, RT-qPCR, cherry-pick (AID 1053122); type: functional; details: Cancer cell lines
# [29] = molecular target: NAD-dependent protein deacylase sirtuin-5, mitochondrial (Homo sapiens, UniProt Q9NXA8); assay: SIRT5 deacylase inhibitors, dose response, biochemical, fluorescence imaging, cherry-pick, set 6 (AID 720597)
# Sequence of NAD-dependent protein deacylase sirtuin-5, mitochondrial (Q9NXA8 whole entry): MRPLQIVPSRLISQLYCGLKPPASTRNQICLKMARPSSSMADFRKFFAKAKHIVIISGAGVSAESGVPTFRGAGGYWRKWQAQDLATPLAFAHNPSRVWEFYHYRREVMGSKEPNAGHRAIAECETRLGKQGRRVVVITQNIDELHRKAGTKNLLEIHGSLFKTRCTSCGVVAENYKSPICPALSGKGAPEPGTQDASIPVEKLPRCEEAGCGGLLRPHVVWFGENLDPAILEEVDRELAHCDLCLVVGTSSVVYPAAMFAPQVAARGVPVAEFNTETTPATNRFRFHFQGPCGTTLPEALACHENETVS
# [30] = HepG2 cell cytotoxicity, dose response, cytotoxicity control, ATP luminescence, cherry-pick, set 6 (AID 1053125); type: functional, cell-based
# Sequence of Luciferin 4-monooxygenase (P08659 whole entry): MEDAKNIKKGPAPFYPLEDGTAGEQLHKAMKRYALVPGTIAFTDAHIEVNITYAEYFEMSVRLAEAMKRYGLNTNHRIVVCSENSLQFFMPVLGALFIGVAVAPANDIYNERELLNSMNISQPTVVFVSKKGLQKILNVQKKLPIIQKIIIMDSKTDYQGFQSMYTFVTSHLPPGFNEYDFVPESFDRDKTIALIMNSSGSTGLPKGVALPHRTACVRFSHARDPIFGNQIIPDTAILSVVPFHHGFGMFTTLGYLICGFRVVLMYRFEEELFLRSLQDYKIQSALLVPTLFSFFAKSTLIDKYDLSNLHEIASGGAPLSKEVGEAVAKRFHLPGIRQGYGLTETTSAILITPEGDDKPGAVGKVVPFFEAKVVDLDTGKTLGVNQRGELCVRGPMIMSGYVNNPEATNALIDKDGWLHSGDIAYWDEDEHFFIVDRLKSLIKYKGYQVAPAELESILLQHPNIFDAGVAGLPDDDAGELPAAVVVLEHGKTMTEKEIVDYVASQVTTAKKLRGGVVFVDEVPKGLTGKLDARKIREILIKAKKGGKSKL
smiles,measurement,setting,value
Nc1ccc(C(=O)Nc2nc3ccccc3s2)cc1,EC50,[1],0.32 µM (active)
same,EC50,HT-1080,> 50 µM (not active)
same,AC50,[2],4.15 µM (active)
same,AC50,[3],26 µM (active)
same,AC50,Escherichia coli,47.5 µM (active)
Cc1onc(-c2ccccc2)c1C(=O)NNC(=S)NC(=O)c1ccc2c(c1)OCO2,EC50,[4],0.978 µM (active)
same,EC50,Streptococcus,4.64 µM (active)
same,EC50,[5],4.22 µM (active)
same,IC50,[6],56.6 µM (inactive)
O=C(Nc1nnc(C2=COCCO2)o1)c1ccc(S(=O)(=O)N2CCCCC2)cc1,AC50,[7],> 100 µM (inactive)
COc1ccccc1C(=O)NC(=S)Nc1cccnc1Cl,EC50,[8],> 67.5 µM (inactive)
same,EC50,cells,> 67.5 µM (inactive)
O=C1C=CC(=O)N1c1ccccc1N1C(=O)C=CC1=O,IC50,CHO,2.55 µM (active)
same,IC50,Beta Lactamase,13.6 µM (inactive)
same,IC50,[9],62.2 µM (active)
same,IC50,NS3,34.9 µM (inactive)
CS(=O)(=O)c1nc(-c2ccc(Br)cc2)n[nH]1,IC50,Coagulation factor XII,> 50 µM (inactive)
same,IC50,[10],50.8 µM (inactive)
same,IC50,[11],> 122 µM (inactive)
COc1ccc(C#Cc2ccc3c(c2)O[C@H](CN(C)C(=O)Nc2cccc(OC)c2)[C@H](C)CN([C@@H](C)CO)S3(=O)=O)cc1,AC50,HEK293,26.3 µM (active)
same,AC50,[12],26.3 µM (active)
same,AC50,[13],2.21 µM (active)
same,AC50,[14],1.46 µM (active)
same,AC50,[15],1.06 µM (active)
same,AC50,[16],1.69 µM (active)
Oc1ccc(CCNc2ccnc3ccccc23)cc1O,IC50,[17],3.9 µM (active)
[O-][S+](Cc1cn(Cc2ccccc2)nn1)c1nnc(-c2ccc(Cl)cc2)o1 (centres undefined),IC90,[18],2 µM (active)
same,AC50,[19],19.6 µM (active)
same,AC50,[20],24.2 µM (active)
same,IC90,[21],2 µM (active)
same,IC90,[22],125 µM (active)
CN(Cc1ccccc1)c1nnc(-c2ccccc2)o1,AC50,[23],> 52 µM (inactive)
COc1cc(C(=O)NC2CC3CCCC(C2)N3CC(=O)Nc2ccc(F)cc2)cc(OC)c1OC (centres undefined),IC50,[24],> 79 µM (inactive)
same,IC50,[25],> 79 µM (inactive)
CCOC(=O)C1(CCOc2ccccc2)CCN(C(=O)c2ccc(O)c(Cl)c2)CC1,AC50,[26],3 µM (active)
CO[C@@H](CN(C)S(=O)(=O)c1ccc(C)cc1)[C@H](C)CN([C@H](C)CO)S(=O)(=O)c1cccc(Cl)c1,AC50,[27],4.83 µM (active)
same,AC50,[28],4.99 µM (active)
C[C@H](CO)N1C[C@H](C)[C@H](CN(C)C)Oc2ccc(NC(=O)Nc3ccc(F)cc3)cc2CC1=O,AC50,[29],11.5 µM (active)
CC(=O)/N=c1\c(C#N)cc2c(=O)n3ccccc3nc2n1CCCOC(C)C,AC50,[30],> 52 µM (inactive)
